Measurements reported in PMC9841576, “Characterisation of C101248: A novel selective THIK-1 channel inhibitor for the modulation of microglial NLRP3-inflammasome” (Neuropharmacology, 2023).
Like-named read-outs stand apart in the source and are kept apart here.

What was measured:
Type in all cases: cell-based
[1] = target: T1, mouse THIK-1 (Mus musculus, UniProt Q8R1P5); assay: FLIPR thallium influx assay, HEK-mTHIK-1 cells
T1 construct: expressed in transfected cells
T1 sequence (Q8R1P5 1-405): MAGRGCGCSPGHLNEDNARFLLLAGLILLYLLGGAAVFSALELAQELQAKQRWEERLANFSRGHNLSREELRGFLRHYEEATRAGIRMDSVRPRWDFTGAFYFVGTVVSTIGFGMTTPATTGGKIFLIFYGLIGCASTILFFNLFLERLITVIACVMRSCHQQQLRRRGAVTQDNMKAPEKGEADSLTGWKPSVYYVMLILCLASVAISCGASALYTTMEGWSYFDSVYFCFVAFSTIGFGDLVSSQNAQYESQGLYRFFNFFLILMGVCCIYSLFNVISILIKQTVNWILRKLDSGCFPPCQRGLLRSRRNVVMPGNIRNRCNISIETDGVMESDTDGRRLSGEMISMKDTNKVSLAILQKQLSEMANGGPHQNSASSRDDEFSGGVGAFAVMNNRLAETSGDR
Procedure: HEK-293 cells were transfected with human THIK-1, TREK-1, TWIK-2, or mouse THIK-1 cDNA cloned into pcDNA3.1, using either Fugene HD transfection reagent (Promega) or electroporation (MaxCyte STX instrument). Cells stably expressing the relevant genes were selected based on resistance to 500 μg/ml geneticin (Gibco). For human THIK-1 and TWIK-2 expressing cells, monoclonal lines were isolated by limited dilution cloning; mouse THIK-1 and human TREK-1 expressing cells were maintained as polyclonal pools. The HEK-293 pools and monoclones stably expressing the relevant genes were maintained in DMEM (Life Technologies), supplemented with 10% FCIII (HyClone, Fetal clone III) and 500 μg/ml geneticin. A CHO-Kv2.1 cell line was purchased from Millipore (accession NM_004975) and maintained in F12 (Life Technologies), supplemented with 10% FCSIII (Thermo Scientific) and 500 μg/ml geneticin (Life Technologies). For thallium flux assays, banks of frozen cell aliquots were prepared the day prior to assay, cells were thawed into media and seeded into PDL coated 384-well plates (Corning) at 25,000 (human/mouse THIK-1, TREK-1) or 30,000 (TWIK-2) cells/well (25 μl/well). CHO-Kv2.1 cells were seeded into non-PDL coated plates (Corning) at 5000 cells/well. Plated cells were incubated overnight at 37 °C, 5% CO2 in a humidified atmosphere. For Q-Patch assays, cells were cultured for 7 days prior to assay, dissociated, and diluted to 1–2.5 million/ml in EX-CELL ACF serum free media containing HEPES (25 mM; Life Technologies), penicillin/streptomycin (100 U/ml, 100 μg/ml; Life Technologies) and a trypsin inhibitor (0.04 mg/ml).
(§1) A fluorescence-based thallium influx assay (Molecular Devices potassium assay kit) was used to monitor channel activity. […] Using a fluorescent imaging plate reader (FLIPR) tetra plate reader, 15 μl thallium stimulus solution was added to the cell plate and the fluorescence signal recorded every second for 1 min (excitation: 470–495 nm, emission: 515–575 nm).

[2] = target: T2, THIK-1 (Homo sapiens, UniProt Q9HB14); assay: Thallium flux functional wash-off assay, HEK-hTHIK-1 cells
T2 construct: expressed in transfected cells
T2 sequence (Q9HB14 1-408): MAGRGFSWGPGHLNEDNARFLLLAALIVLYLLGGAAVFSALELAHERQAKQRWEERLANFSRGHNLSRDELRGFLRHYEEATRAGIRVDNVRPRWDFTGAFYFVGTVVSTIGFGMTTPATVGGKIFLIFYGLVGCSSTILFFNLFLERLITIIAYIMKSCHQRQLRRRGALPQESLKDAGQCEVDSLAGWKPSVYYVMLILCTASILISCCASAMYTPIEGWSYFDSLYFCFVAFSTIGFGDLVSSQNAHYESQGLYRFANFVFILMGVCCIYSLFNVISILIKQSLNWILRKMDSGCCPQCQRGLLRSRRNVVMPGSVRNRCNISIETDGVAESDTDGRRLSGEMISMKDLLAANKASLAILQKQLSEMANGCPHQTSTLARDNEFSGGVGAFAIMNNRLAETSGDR
Procedure: A fluorescence-based thallium influx assay (Molecular Devices potassium assay kit) was used to monitor channel activity. In brief, component A was reconstituted in 17 ml of chloride-free assay buffer (130 mM sodium D-gluconate, 5 mM potassium D-gluconate, 2 mM calcium D-gluconate, 1 mM magnesium D-gluconate, 5 mM NaHCO3, 20 mM HEPES; pH adjusted to 7.4 with NaOH and filtered (0.45 μm filter)) and component C reconstituted in 30 μl of DMSO. Components A and C were combined, and probenecid was added (Life Technologies; final assay concentration (FAC) 4.75 mM for HEK cell lines and 2.47 mM for CHO-Kv2.1) to provide the final dye solution. Media was removed from the cell plates and replaced with dye (20 μl/well) and the plates were incubated at room temperature in the dark for 60 min. On the day of the assay, a diluted compound plate (3x FAC in 1.5% DMSO) was created. Control wells contained either DMSO vehicle (1.5%, 3x FAC) or tetrapentylammonium chloride (TPA; Sigma, 258962; 1.5 mM in 1.5% DMSO, 3x FAC). A 3x thallium stimulation plate was also prepared, to provide a FAC of either 1 mM (human THIK-1) or 3 mM (mouse THIK-1, TREK-1, TWIK-2) thallium sulphate (in assay buffer). For Kv2.1, the FAC of thallium sulphate was 2.6 mM and this was prepared in assay buffer containing potassium sulphate (Sigma P9458; FAC 23.3 mM). Following 60 min of dye loading, 10 μl from the 3x FAC compound plate was added into the cell plate, which was then incubated for 15 min at room temperature in the dark. Using a fluorescent imaging plate reader (FLIPR) tetra plate reader, 15 μl thallium stimulus solution was added to the cell plate and the fluorescence signal recorded every second for 1 min (excitation: 470–495 nm, emission: 515–575 nm).
For the functional wash-off assay, plates were tested in parallel that were run as standard (no wash) with plates that had undergone an additional assay buffer wash and incubation period following compound addition. Briefly, after a 15 min compound incubation, plates were either moved to the FLIPR for immediate thallium addition (standard) or the plates were washed with assay buffer to remove compound solutions (50 μl/well addition and removal), 30 μl/well assay buffer added and the plates incubated for 60 min, followed by thallium addition on the FLIPR (60 min wash).

[3] = target: T3, TWIK-2 (Homo sapiens, UniProt Q9Y257); assay: FLIPR thallium influx assay, HEK-hTWIK-2 cells; conditions: HEK-hTWIK-2, at 30 μM, compared to TPA controls; read-out: inhibition of constitutive activity
T3 construct: expressed in transfected cells
Procedure: HEK-293 cells were transfected with human THIK-1, TREK-1, TWIK-2, or mouse THIK-1 cDNA cloned into pcDNA3.1, using either Fugene HD transfection reagent (Promega) or electroporation (MaxCyte STX instrument). Cells stably expressing the relevant genes were selected based on resistance to 500 μg/ml geneticin (Gibco). For human THIK-1 and TWIK-2 expressing cells, monoclonal lines were isolated by limited dilution cloning; mouse THIK-1 and human TREK-1 expressing cells were maintained as polyclonal pools. The HEK-293 pools and monoclones stably expressing the relevant genes were maintained in DMEM (Life Technologies), supplemented with 10% FCIII (HyClone, Fetal clone III) and 500 μg/ml geneticin. A CHO-Kv2.1 cell line was purchased from Millipore (accession NM_004975) and maintained in F12 (Life Technologies), supplemented with 10% FCSIII (Thermo Scientific) and 500 μg/ml geneticin (Life Technologies). […]
as §1

T3 sequence (Q9Y257 whole entry): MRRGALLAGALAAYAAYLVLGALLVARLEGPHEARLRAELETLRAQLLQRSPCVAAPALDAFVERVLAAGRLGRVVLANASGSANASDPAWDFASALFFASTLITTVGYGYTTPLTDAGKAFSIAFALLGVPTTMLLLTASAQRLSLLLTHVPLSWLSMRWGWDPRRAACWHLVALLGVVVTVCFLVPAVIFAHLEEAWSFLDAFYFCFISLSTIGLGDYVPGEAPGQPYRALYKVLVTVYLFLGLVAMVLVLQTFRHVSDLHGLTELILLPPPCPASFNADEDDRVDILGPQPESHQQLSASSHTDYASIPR

SMILES: Nc1nonc1-c1nc2ccccc2n1Cc1ccncc1 [C101248]
- IC50 ([1]; HEK-mTHIK-1, normalised to TPA controls, read-out: IC50, mouse THIK-1 (thallium influx)): 49 nM
- maximum inhibition ([1]; HEK-mTHIK-1, thallium influx): 100%
- IC50 ([1]; mouse THIK-1, read-out: IC50, inhibition of mouse THIK-1 (abstract)): ~50 nM
- Hill slope (nH) ([2]; 60 min wash): 0.54
- maximum inhibition (60 min wash) ([2]; 60 min wash): 93%
- lower potency after 60 min wash-off compared to standard format ([2]; 60 min wash vs no wash): 3.4 fold
- IC50 ([2]; compound removed, 60 min incubation in buffer before thallium, read-out: IC50 (60 min wash)): 96 nM
- Hill slope (nH) ([2]; no wash): 1.3
- maximum inhibition (no wash) ([2]; no wash): 101%
- IC50 ([2]; standard format, 15 min compound incubation, immediate thallium addition, read-out: IC50 (no wash)): 28 nM
- inhibition at 30 µM [3]: 7%
